Source: PubChem BioAssay AID248 (DTP/NCI, 2004)
Toxic doses and inconclusive results are not listed. No stated cut-off is given here; in the data, active means T/C of 150% or more; inactive means T/C below 125%.

System: L1210 leukemia ip in BDF1 mice, survival T/C
Test: NCI In Vivo Anticancer Drug Screen. Data for tumor model L1210 Leukemia (intraperitoneal) in B6D2F1 (BDF1) mice
Details: endpoint: mean survival time, higher = longer survival
Procedure, shortened: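 In this screen, tumor-bearing mice given compound are compared to those given vehicle, and their survival values are reported as a treated-to-control quotient.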

[1] = dose: 75.0 mg/kg/injection, schedule: Q01DX001 (ip), vehicle: saline
[2] = dose: 150.0 mg/kg/injection, schedule: Q01DX001 (ip), vehicle: saline
[3] = dose: 100.0 mg/kg/injection, schedule: Q04DX003 (ip), vehicle: Klucel (hydroxypropylcellulose) (HPC)
[4] = dose: 200.0 mg/kg/injection, schedule: Q04DX003 (ip), vehicle: Klucel (hydroxypropylcellulose) (HPC)
[5] = dose: 400.0 mg/kg/injection, schedule: Q04DX003 (ip), vehicle: Klucel (hydroxypropylcellulose) (HPC)
[6] = dose: 50.0 mg/kg/injection, schedule: Q01DX009 (ip), vehicle: saline with Tween-80
[7] = dose: 100.0 mg/kg/injection, schedule: Q01DX009 (ip), vehicle: saline with Tween-80
[8] = dose: 200.0 mg/kg/injection, schedule: Q01DX009 (ip), vehicle: saline with Tween-80
[9] = dose: 100.0 mg/kg/injection, schedule: Q01DX001 (ip), vehicle: carboxymethylcellulose (CMC)
[10] = dose: 100.0 mg/kg/injection, schedule: Q04DX003 (ip), vehicle: saline with Tween-80
[11] = dose: 400.0 mg/kg/injection, schedule: Q01DX009 (ip), vehicle: saline with Tween-80

Measured: T/C

CCCCCCCCC[n+]1cccc(C#N)c1
inactive: dose: 18.75 mg/kg/injection, schedule: Q01DX009 (ip), vehicle: saline 90 % of control | dose: 37.5 mg/kg/injection, schedule: Q01DX009 (ip), vehicle: saline 88 % of control | dose: 37.5 mg/kg/injection, schedule: Q04DX003 (ip), vehicle: acetone 100 % of control | [1] 100 % of control | dose: 75.0 mg/kg/injection, schedule: Q01DX009 (ip), vehicle: saline 90 % of control | dose: 75.0 mg/kg/injection, schedule: Q04DX003 (ip), vehicle: acetone 97 % of control | [2] 102 % of control | dose: 150.0 mg/kg/injection, schedule: Q04DX003 (ip), vehicle: acetone 105 % of control

Nc1ncn(C(=S)Nc2ccccc2)n1
inactive: dose: 50.0 mg/kg/injection, schedule: Q01DX001 (ip), vehicle: saline 102 % of control | dose: 100.0 mg/kg/injection, schedule: Q01DX001 (ip), vehicle: saline 98 % of control | dose: 200.0 mg/kg/injection, schedule: Q01DX001 (ip), vehicle: saline 98 % of control | dose: 400.0 mg/kg/injection, schedule: Q01DX001 (ip), vehicle: saline 98 % of control

COC(=O)C12c3ccccc3C(c3ccccc31)c1c(N=O)ccc(NO)c12
inactive: dose: 25.0 mg/kg/injection, schedule: Q04DX003 (ip), vehicle: Klucel (hydroxypropylcellulose) (HPC) 100 % of control | dose: 50.0 mg/kg/injection, schedule: Q04DX003 (ip), vehicle: Klucel (hydroxypropylcellulose) (HPC) 97 % of control | dose: 100.0 mg/kg/injection, schedule: Q01DX001 (ip), vehicle: Klucel (hydroxypropylcellulose) (HPC) 99 % of control | [3] 94 % of control | dose: 200.0 mg/kg/injection, schedule: Q01DX001 (ip), vehicle: Klucel (hydroxypropylcellulose) (HPC) 90 % of control | [4] 102 % of control | dose: 400.0 mg/kg/injection, schedule: Q01DX001 (ip), vehicle: Klucel (hydroxypropylcellulose) (HPC) 89 % of control | [5] 105 % of control

CC=C(C)c1ccccc1 (mixture of isomers)
inactive: [6] 118 % of control | [7] 123 % of control | [8] 94 % of control

NC(=S)N/N=C/c1ccccc1O
inactive: dose: 50.0 mg/kg/injection, schedule: Q01DX001 (ip), vehicle: carboxymethylcellulose (CMC) 96 % of control | [9] 104 % of control | dose: 100.0 mg/kg/injection, schedule: Q04DX002 (ip), vehicle: saline with Tween-80 90 % of control | dose: 200.0 mg/kg/injection, schedule: Q01DX001 (ip), vehicle: carboxymethylcellulose (CMC) 91 % of control | dose: 200.0 mg/kg/injection, schedule: Q04DX002 (ip), vehicle: saline with Tween-80 104 % of control | dose: 400.0 mg/kg/injection, schedule: Q01DX001 (ip), vehicle: carboxymethylcellulose (CMC) 91 % of control | dose: 400.0 mg/kg/injection, schedule: Q04DX002 (ip), vehicle: saline with Tween-80 93 % of control

Cc1nc(C)c(I)s1
inactive: dose: 100.0 mg/kg/injection, schedule: Q01DX009 (ip), vehicle: Klucel (hydroxypropylcellulose) (HPC) 93 % of control | [3] 98 % of control | dose: 200.0 mg/kg/injection, schedule: Q01DX009 (ip), vehicle: Klucel (hydroxypropylcellulose) (HPC) 97 % of control | [4] 93 % of control | dose: 400.0 mg/kg/injection, schedule: Q01DX009 (ip), vehicle: Klucel (hydroxypropylcellulose) (HPC) 94 % of control | [5] 104 % of control

O=C(C[n+]1ccccc1)c1ccccc1
inactive: dose: 25.0 mg/kg/injection, schedule: Q04DX002 (ip), vehicle: saline 98 % of control | dose: 50.0 mg/kg/injection, schedule: Q04DX002 (ip), vehicle: saline 95 % of control | dose: 100.0 mg/kg/injection, schedule: Q04DX002 (ip), vehicle: saline 98 % of control

COc1ccc(NC(=O)NCc2ccc(C)cc2)cc1
inactive: dose: 100.0 mg/kg/injection, schedule: Q04DX002 (ip), vehicle: Klucel (hydroxypropylcellulose) (HPC) 104 % of control | dose: 200.0 mg/kg/injection, schedule: Q04DX002 (ip), vehicle: Klucel (hydroxypropylcellulose) (HPC) 104 % of control | dose: 400.0 mg/kg/injection, schedule: Q04DX002 (ip), vehicle: Klucel (hydroxypropylcellulose) (HPC) 96 % of control

c1ccc(C2OC3(CCCCC3)C[N+]23CCCC3)cc1 (stereo unspecified)
inactive: dose: 25.0 mg/kg/injection, schedule: Q01DX009 (ip), vehicle: saline with Tween-80 109 % of control | [6] 107 % of control | [10] 97 % of control

CNC(=O)N(c1ccccc1)C1CCCCC1
inactive: dose: 50.0 mg/kg/injection, schedule: Q01DX009 (ip), vehicle: saline 112 % of control | dose: 100.0 mg/kg/injection, schedule: Q01DX009 (ip), vehicle: saline 103 % of control | dose: 100.0 mg/kg/injection, schedule: Q04DX003 (ip), vehicle: saline 104 % of control | dose: 200.0 mg/kg/injection, schedule: Q01DX009 (ip), vehicle: saline 103 % of control | dose: 200.0 mg/kg/injection, schedule: Q04DX003 (ip), vehicle: saline 97 % of control

COC(=O)c1ccccc1NC(=O)Nc1ccccc1C(F)(F)F
inactive: [7] 89 % of control | [8] 89 % of control | [11] 86 % of control

CC1CCCC2C(=O)CCC(C(C)(C)O)C12C (stereo unspecified)
inactive: [7] 91 % of control | [10] 92 % of control | [8] 95 % of control | dose: 200.0 mg/kg/injection, schedule: Q04DX003 (ip), vehicle: saline with Tween-80 92 % of control | [11] 93 % of control | dose: 400.0 mg/kg/injection, schedule: Q04DX003 (ip), vehicle: saline with Tween-80 92 % of control

CCCC1(CC)C(=O)N=C(N)NC1=O (stereo unspecified)
inactive: dose: 25.0 mg/kg/injection, schedule: Q01DX001 (ip), vehicle: Klucel (hydroxypropylcellulose) (HPC) 95 % of control | dose: 50.0 mg/kg/injection, schedule: Q01DX001 (ip), vehicle: Klucel (hydroxypropylcellulose) (HPC) 104 % of control

Nc1ncnc2c1cnn2C1OC(CO)C(O)C1O (stereo unspecified)
inactive: dose: 4.1 mg/kg/injection, schedule: Q01DX009 (ip), vehicle: carboxymethylcellulose (CMC) 97 % of control | dose: 6.2 mg/kg/injection, schedule: Q01DX009 (ip), vehicle: carboxymethylcellulose (CMC) 111 % of control | dose: 9.3 mg/kg/injection, schedule: Q01DX009 (ip), vehicle: carboxymethylcellulose (CMC) 124 % of control | dose: 67.5 mg/kg/injection, schedule: Q01DX015 (ip), vehicle: carboxymethylcellulose (CMC) 122 % of control | [9] 111 % of control

Cc1c2ccccc2c(CSCCC(N)C(=O)O)c2ccccc12 (stereo unspecified)
inactive: [7] 89 % of control | [8] 91 % of control | [11] 110 % of control

CCC1(/C=C/C(C)C)C(=O)NC(=O)NC1=O
inactive: [1] 105 % of control | [2] 93 % of control

Cc1cnc(C(=O)O)c(N)n1
inactive: [1] 105 % of control | [2] 93 % of control

CCCCOc1ccc(/C=N/NC(=O)CNC(=O)Nc2cccc(C(F)(F)F)c2)cc1
inactive: dose: 100.0 mg/kg/injection, schedule: Q01DX009 (ip), vehicle: gum acacia 86 % of control | dose: 200.0 mg/kg/injection, schedule: Q01DX009 (ip), vehicle: gum acacia 93 % of control | dose: 400.0 mg/kg/injection, schedule: Q01DX009 (ip), vehicle: gum acacia 96 % of control
